Our source for the relative viability values is the supplement of paper PMC10307832.

Holding throughout (test): relative viability (nuclei count vs DMSO), 5 days (fraction); higher = more cells survive
Compound in assay [1]: Cc1nc(NC(=O)N2CCC[C@H]2C(N)=O)sc1-c1ccnc(C(C)(C)C(F)(F)F)c1 [Alpelisib] + CC(=O)c1c(C)c2cnc(Nc3ccc(N4CCNCC4)cn3)nc2n(C2CCCC2)c1=O [Palbociclib] (partner 0.5 µM)
In short, it runs like this:
(§1)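 One day after seeding in 1536-well plates, lung cancer cell lines were dosed by pin tool. Dosing was either single-drug or a fixed anchor-drug dose plus five library-drug doses (not always all listed) in √10 steps. After 5 days, nuclei were stained in one fix-and-stain step and counted on 4× images, and relative viability is the nuclei count of treated wells over that of vehicle wells, given as the median of duplicate plates.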

Compound in assay [2]: CCCS(=O)(=O)Nc1ccc(F)c(C(=O)c2c[nH]c3ncc(-c4ccc(Cl)cc4)cc23)c1F [Vemurafenib] + CS(=O)(=O)CCNCc1ccc(-c2ccc3ncnc(Nc4ccc(OCc5cccc(F)c5)c(Cl)c4)c3c2)o1 [Lapatinib] (partner 2 µM)
Summed up:
as §1

Compound in assay [3]: Cc1nc(NC(=O)N2CCC[C@H]2C(N)=O)sc1-c1ccnc(C(C)(C)C(F)(F)F)c1 [Alpelisib] + O=C(CCCCCCC(=O)Nc1ccccc1)NO [Vorinostat] (partner 1 µM)
In short, it runs like this:
as §1

Compound in assay [4]: COc1cccc2cc(-c3nc([C@H]4CC[C@H](C(=O)O)CC4)n4ncnc(N)c34)[nH]c12 [OSI-027] + O=C(CCCCCCC(=O)Nc1ccccc1)NO [Vorinostat] (partner 1 µM)
Summed up:
as §1

For the cell line UMC-11, the relative viability stood at 0.333 in assay [1] (first compound 0.04 µM); 0.3 in assay [1] (first compound 0.1265 µM); 0.357 in assay [1] (first compound 0.4 µM); 0.307 in assay [1] (first compound 1.265 µM); 0.328 in assay [1] (first compound 4 µM); 0.698 in assay [2] (first compound 0.03162 µM). Also, the relative viability in assay [2] (first compound 0.1 µM) was 0.956; in assay [2] (first compound 0.3162 µM), 0.73; in assay [2] (first compound 1 µM), 0.625; in assay [3] (first compound 0.04 µM) it was 0.374; in assay [3] (first compound 0.1265 µM), 0.31; in assay [3] (first compound 0.4 µM), 0.403. For the same cell line, the relative viability in assay [3] (first compound 1.265 µM) was found to be 0.344; in assay [3] (first compound 4 µM), 0.31; in assay [4] (first compound 0.01 µM), 0.379; in assay [4] (first compound 0.03162 µM), 0.371; in assay [4] (first compound 0.1 µM), 0.376; in assay [4] (first compound 0.3162 µM), 0.348. The relative viability in assay [4] (first compound 1 µM) was 0.275.
